Experimental data taken from PMC10004634 (PLOS ONE, 2023).
Where two headings read alike, the source gives them in different places.

What was measured:
Assay in all cases: biochemical
Design in all cases: KINOMEscan scanMAX competition binding, DNA-tagged kinases, qPCR read-out, percent control at 300 nM
AXL = target: T1, AXL (Homo sapiens, UniProt P30530)
T1 sequence (P30530 1-894): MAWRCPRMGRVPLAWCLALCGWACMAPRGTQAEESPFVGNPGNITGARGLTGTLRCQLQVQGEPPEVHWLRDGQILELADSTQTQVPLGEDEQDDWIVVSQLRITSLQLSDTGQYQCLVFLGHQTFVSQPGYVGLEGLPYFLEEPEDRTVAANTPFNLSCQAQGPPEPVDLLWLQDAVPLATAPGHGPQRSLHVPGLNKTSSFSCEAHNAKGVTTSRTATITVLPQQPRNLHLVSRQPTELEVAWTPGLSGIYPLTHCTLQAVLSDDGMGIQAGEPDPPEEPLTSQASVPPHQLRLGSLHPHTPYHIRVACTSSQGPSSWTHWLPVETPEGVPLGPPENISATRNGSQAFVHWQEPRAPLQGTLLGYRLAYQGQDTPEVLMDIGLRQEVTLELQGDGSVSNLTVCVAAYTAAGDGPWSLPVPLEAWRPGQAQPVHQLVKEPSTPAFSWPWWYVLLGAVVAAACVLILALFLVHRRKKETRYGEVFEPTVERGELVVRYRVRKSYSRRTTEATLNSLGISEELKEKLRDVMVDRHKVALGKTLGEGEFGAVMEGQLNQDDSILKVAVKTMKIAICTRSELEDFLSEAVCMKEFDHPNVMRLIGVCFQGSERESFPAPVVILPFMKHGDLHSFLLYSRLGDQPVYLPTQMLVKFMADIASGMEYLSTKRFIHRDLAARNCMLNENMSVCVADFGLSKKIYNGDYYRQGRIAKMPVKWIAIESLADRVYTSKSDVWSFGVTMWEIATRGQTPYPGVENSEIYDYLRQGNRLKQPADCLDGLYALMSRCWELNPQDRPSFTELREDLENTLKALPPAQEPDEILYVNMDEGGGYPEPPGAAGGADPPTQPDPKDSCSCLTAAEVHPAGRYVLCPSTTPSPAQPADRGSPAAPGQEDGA

CSNK1A1L = target: T2, CSNK1A1L (Homo sapiens, UniProt Q8N752)
T2 sequence (Q8N752 1-337): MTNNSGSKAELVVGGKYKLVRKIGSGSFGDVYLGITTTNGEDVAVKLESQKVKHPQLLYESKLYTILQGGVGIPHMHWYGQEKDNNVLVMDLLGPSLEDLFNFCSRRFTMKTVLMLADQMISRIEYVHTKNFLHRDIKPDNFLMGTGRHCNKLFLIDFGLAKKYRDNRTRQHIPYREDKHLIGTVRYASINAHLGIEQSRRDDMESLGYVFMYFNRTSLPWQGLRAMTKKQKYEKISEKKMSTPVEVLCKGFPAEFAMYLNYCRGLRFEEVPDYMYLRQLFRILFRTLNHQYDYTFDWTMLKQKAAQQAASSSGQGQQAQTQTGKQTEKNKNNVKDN

FER = FER (Homo sapiens, UniProt P16591)
FGFR2 = FGFR2 (Homo sapiens, UniProt P21802)
HIPK3 = HIPK3 (Homo sapiens, UniProt Q9H422)
JNK1 = target: T3, JNK1 (Homo sapiens, UniProt P45983)
T3 construct: gene MAPK8

KIT(D816H) = KIT(D816H) (Homo sapiens, UniProt P10721, D816H)
MKNK1 = MKNK1 (Homo sapiens, UniProt Q9BUB5)
MST1R = MST1R (Homo sapiens, UniProt Q04912)
PRKCQ = PRKCQ (Homo sapiens, UniProt Q04759)
RIPK2 = RIPK2 (Homo sapiens, UniProt O43353)
SLK = SLK (Homo sapiens, UniProt Q9H2G2)
STK16 = STK16 (Homo sapiens, UniProt O75716)
STK35 = STK35 (Homo sapiens, UniProt Q8TDR2)
p38-alpha = target: T4, p38-alpha (Homo sapiens, UniProt Q16539)
T4 construct: gene MAPK14

[1] = read-out: Percent control / Acalabrutinib
[2] = read-out: Percent control / Ibrutinib
[3] = read-out: Percent control / Tirabrutinib
[4] = read-out: Percent control / Zanubrutinib

Chain of HIPK3 (Q9H422 whole entry): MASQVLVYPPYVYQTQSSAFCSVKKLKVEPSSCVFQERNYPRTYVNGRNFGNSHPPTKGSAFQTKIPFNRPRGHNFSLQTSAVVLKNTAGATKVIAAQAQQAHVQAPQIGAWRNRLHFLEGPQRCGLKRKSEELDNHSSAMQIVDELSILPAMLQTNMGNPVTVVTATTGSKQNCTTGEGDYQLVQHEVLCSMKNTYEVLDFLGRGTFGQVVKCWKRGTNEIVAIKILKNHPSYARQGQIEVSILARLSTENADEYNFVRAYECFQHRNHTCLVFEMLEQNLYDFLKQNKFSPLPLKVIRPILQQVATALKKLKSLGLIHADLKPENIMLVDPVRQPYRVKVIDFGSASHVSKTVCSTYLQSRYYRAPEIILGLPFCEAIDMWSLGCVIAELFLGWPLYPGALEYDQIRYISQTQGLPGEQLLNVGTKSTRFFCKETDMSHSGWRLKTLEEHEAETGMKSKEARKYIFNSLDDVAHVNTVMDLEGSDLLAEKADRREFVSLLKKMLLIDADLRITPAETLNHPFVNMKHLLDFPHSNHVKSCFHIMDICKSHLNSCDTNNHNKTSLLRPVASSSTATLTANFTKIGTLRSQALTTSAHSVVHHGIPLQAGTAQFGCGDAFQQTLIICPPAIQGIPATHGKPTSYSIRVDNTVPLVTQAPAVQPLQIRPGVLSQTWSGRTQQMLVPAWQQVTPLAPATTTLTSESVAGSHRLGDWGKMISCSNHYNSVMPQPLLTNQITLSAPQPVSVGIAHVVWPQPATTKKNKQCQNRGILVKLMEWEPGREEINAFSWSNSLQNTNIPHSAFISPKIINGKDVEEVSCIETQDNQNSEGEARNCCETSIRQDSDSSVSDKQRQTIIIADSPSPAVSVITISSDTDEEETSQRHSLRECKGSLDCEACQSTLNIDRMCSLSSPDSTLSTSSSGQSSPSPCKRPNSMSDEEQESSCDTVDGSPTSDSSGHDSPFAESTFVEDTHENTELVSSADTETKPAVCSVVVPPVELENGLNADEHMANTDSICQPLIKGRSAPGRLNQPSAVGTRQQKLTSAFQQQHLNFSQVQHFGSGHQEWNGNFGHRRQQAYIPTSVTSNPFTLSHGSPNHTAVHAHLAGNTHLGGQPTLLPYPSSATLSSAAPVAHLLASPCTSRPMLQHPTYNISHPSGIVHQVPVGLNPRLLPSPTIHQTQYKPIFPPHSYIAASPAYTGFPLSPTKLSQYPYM
T3 sequence (P45983 whole entry): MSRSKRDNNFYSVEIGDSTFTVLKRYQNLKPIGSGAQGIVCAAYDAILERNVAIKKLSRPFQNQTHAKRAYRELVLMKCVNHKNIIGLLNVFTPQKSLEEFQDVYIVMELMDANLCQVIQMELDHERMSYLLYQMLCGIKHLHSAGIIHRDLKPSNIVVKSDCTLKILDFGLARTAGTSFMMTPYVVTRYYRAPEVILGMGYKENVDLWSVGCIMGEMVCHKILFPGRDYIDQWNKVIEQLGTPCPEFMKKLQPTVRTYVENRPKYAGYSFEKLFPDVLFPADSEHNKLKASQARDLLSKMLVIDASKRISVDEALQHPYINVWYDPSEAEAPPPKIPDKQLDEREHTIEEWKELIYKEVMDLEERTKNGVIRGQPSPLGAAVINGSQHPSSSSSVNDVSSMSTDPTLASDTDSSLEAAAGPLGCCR
Chain of SLK (Q9H2G2 whole entry): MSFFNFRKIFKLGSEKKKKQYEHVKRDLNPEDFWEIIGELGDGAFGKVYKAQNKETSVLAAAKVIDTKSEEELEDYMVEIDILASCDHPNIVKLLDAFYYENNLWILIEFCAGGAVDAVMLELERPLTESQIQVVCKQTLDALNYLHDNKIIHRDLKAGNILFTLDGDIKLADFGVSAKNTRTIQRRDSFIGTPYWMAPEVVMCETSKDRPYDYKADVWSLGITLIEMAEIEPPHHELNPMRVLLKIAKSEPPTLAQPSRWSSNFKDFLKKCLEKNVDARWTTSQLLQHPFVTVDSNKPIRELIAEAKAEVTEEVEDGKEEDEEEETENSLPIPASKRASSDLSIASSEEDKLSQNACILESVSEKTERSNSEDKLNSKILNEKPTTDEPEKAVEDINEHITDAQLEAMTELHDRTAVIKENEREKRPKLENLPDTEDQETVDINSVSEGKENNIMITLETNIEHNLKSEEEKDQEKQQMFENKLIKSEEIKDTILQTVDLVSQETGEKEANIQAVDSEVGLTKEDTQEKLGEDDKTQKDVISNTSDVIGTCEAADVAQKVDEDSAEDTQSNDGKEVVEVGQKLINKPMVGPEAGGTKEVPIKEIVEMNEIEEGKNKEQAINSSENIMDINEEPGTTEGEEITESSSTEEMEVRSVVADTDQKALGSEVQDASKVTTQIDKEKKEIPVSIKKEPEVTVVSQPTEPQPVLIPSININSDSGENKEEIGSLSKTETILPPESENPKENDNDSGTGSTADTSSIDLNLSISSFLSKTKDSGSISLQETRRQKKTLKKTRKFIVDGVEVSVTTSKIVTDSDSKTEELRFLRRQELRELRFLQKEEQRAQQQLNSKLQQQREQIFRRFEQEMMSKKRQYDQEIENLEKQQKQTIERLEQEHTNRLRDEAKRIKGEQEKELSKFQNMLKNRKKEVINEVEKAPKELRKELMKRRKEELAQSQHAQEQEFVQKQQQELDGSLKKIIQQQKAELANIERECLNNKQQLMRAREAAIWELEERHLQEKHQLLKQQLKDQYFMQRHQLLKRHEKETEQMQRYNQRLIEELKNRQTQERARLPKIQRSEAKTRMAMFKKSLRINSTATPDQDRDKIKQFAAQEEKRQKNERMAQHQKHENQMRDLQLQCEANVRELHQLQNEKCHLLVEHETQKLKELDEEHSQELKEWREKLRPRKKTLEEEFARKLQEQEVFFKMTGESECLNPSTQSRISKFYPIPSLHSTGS
Chain of FGFR2 (P21802 whole entry): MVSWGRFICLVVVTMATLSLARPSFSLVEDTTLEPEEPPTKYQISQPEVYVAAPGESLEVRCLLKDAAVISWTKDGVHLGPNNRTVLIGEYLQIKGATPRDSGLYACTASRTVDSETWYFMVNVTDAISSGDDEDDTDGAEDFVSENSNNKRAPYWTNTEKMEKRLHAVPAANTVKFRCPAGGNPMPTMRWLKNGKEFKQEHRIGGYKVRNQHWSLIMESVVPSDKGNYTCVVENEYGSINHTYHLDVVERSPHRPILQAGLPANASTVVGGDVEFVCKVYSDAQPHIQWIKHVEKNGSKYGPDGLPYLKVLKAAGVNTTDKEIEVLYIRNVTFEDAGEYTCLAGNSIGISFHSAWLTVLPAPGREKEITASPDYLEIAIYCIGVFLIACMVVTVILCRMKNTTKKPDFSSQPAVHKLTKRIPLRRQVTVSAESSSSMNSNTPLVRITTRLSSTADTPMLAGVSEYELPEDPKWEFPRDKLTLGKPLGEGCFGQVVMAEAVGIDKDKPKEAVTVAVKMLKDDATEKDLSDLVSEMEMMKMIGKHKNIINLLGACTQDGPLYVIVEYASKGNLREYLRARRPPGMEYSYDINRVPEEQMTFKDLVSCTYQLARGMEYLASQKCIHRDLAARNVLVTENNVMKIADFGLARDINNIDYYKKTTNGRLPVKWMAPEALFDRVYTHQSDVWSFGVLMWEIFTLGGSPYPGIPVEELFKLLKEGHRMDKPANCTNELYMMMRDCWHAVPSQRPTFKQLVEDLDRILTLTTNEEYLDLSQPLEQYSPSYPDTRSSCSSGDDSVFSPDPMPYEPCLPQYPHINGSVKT
Chain of STK16 (O75716 whole entry): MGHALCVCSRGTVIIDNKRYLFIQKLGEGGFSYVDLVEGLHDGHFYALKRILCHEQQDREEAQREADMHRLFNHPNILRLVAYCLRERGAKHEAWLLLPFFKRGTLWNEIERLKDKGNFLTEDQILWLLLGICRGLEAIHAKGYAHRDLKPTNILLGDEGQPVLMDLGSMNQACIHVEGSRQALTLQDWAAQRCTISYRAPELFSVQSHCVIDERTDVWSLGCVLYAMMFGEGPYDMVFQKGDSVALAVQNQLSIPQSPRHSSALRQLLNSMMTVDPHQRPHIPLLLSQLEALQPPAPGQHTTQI
Chain of FER (P16591 whole entry): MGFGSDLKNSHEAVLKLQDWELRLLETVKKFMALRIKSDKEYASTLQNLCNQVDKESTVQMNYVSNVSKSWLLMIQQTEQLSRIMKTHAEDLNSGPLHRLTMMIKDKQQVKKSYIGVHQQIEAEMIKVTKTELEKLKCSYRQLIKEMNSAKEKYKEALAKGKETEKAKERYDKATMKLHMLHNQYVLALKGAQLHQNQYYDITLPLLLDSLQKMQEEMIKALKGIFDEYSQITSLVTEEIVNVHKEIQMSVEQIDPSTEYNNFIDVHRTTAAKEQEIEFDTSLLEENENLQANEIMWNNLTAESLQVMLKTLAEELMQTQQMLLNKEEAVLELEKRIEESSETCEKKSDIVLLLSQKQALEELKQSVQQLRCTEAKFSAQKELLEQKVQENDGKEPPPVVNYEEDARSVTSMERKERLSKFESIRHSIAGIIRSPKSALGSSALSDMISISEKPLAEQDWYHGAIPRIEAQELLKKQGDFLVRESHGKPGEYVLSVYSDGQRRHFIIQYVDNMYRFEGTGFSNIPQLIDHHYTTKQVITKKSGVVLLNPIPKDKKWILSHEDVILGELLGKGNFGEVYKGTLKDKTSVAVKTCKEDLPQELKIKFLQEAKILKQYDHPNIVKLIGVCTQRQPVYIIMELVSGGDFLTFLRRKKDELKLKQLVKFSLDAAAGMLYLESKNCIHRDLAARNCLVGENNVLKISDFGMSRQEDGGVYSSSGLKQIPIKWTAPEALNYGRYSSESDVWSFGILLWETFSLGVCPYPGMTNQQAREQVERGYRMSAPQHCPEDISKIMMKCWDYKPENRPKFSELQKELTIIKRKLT

CC#CC(=O)N1CCC[C@H]1c1nc(-c2ccc(C(=O)Nc3ccccn3)cc2)c2c(N)nccn12 [Acalabrutinib]
remaining binding at 0.3 µM (AXL; [1]): 88%
remaining binding at 0.3 µM (CSNK1A1L; [1]): 84%
remaining binding at 0.3 µM (FER; [1]): 84%
remaining binding at 0.3 µM (FGFR2; [1]): 88%
remaining binding at 0.3 µM (HIPK3; [1]): 99%
remaining binding at 0.3 µM (JNK1; [1]): 93%
remaining binding at 0.3 µM (KIT(D816H); [1]): 82%
remaining binding at 0.3 µM (MKNK1; [1]): 84%
remaining binding at 0.3 µM (MST1R; [1]): 91%
remaining binding at 0.3 µM (PRKCQ; [1]): 84%
remaining binding at 0.3 µM (RIPK2; [1]): 79%
remaining binding at 0.3 µM (SLK; [1]): 88%
remaining binding at 0.3 µM (STK16; [1]): 86%
remaining binding at 0.3 µM (STK35; [1]): 96%
remaining binding at 0.3 µM (p38-alpha; [1]): 85%

C=CC(=O)N1CCC[C@@H](n2nc(-c3ccc(Oc4ccccc4)cc3)c3c(N)ncnc32)C1 [Ibrutinib]
remaining binding at 0.3 µM (AXL; [2]): 85%
remaining binding at 0.3 µM (CSNK1A1L; [2]): 93%
remaining binding at 0.3 µM (FER; [2]): 94%
remaining binding at 0.3 µM (FGFR2; [2]): 65%
remaining binding at 0.3 µM (HIPK3; [2]): 51%
remaining binding at 0.3 µM (JNK1; [2]): 96%
remaining binding at 0.3 µM (MKNK1; [2]): 89%
remaining binding at 0.3 µM (MST1R; [2]): 90%
remaining binding at 0.3 µM (RIPK2; [2]): 6.4%
remaining binding at 0.3 µM (SLK; [2]): 92%
remaining binding at 0.3 µM (STK16; [2]): 98%
remaining binding at 0.3 µM (STK35; [2]): 86%
remaining binding at 0.3 µM (p38-alpha; [2]): 98%

CC#CC(=O)N1CC[C@@H](n2c(=O)n(-c3ccc(Oc4ccccc4)cc3)c3c(N)ncnc32)C1 [Tirabrutinib]
remaining binding at 0.3 µM (CSNK1A1L; [3]): 93%
remaining binding at 0.3 µM (FER; [3]): 93%
remaining binding at 0.3 µM (HIPK3; [3]): 78%
remaining binding at 0.3 µM (JNK1; [3]): 83%
remaining binding at 0.3 µM (KIT(D816H); [3]): 84%
remaining binding at 0.3 µM (MKNK1; [3]): 87%
remaining binding at 0.3 µM (MST1R; [3]): 98%
remaining binding at 0.3 µM (PRKCQ; [3]): 93%
remaining binding at 0.3 µM (RIPK2; [3]): 33%
remaining binding at 0.3 µM (SLK; [3]): 93%
remaining binding at 0.3 µM (STK16; [3]): 82%
remaining binding at 0.3 µM (p38-alpha; [3]): 92%

C=CC(=O)N1CCC([C@@H]2CCNc3c(C(N)=O)c(-c4ccc(Oc5ccccc5)cc4)nn32)CC1 [Zanubrutinib]
remaining binding at 0.3 µM (AXL; [4]): 91%
remaining binding at 0.3 µM (CSNK1A1L; [4]): 83%
remaining binding at 0.3 µM (FER; [4]): 100%
remaining binding at 0.3 µM (FGFR2; [4]): 93%
remaining binding at 0.3 µM (HIPK3; [4]): 97%
remaining binding at 0.3 µM (JNK1; [4]): 100%
remaining binding at 0.3 µM (KIT(D816H); [4]): 96%
remaining binding at 0.3 µM (MKNK1; [4]): 100%
remaining binding at 0.3 µM (MST1R; [4]): 98%
remaining binding at 0.3 µM (PRKCQ; [4]): 87%
remaining binding at 0.3 µM (SLK; [4]): 99%
remaining binding at 0.3 µM (STK16; [4]): 100%
remaining binding at 0.3 µM (STK35; [4]): 92%
remaining binding at 0.3 µM (p38-alpha; [4]): 97%
